Tests used:
[1] = Selectivity index, ratio of CC50 for cytotoxicity against human THP-1 cells to IC50 for anti-trypanosomal activity against trypomastigote blood stage of Trypanosoma brucei Lister 427; format: toxicity, cell-based; conditions: read-out: Ratio CC50/IC50
[2] = biological target: CYP3A4 (Homo sapiens, UniProt P08684); experiment: Inhibition of human CYP3A4 expressed in insect cell microsomes at 10 uM preincubated for 20 mins followed by NADP+ and substrate addition and measured after 10 mins by fluorescence based analysis; format: ADME, Microsome; conditions: recombinant human CYP3A4 expressed in insect cell microsomes, time 30 min
Chain of CYP3A4 (P08684 whole entry): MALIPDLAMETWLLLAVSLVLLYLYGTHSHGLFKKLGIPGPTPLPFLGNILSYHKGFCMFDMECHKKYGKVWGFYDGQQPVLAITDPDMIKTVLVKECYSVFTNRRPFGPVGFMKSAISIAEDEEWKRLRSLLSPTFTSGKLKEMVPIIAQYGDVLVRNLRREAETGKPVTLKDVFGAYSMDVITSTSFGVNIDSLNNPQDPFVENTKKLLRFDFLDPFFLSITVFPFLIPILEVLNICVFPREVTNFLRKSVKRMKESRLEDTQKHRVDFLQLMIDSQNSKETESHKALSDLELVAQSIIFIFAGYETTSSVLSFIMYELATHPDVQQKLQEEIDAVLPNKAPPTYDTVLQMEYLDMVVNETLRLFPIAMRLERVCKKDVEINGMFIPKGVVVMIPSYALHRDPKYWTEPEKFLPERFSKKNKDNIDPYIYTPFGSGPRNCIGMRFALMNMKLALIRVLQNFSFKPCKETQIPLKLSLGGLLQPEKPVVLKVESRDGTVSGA

[3] = Cytotoxicity against human A549 cells assessed as reduction in cell viability at 10 uM incubated for 24 hrs by Cell-Titer Glo luminescence assay; format: toxicity, cell-based; conditions: read-out: INH
[4] = system: Trypanosoma brucei; experiment: Anti-trypanosomal activity against trypomastigote blood stage of Trypanosoma brucei Lister 427 assessed as inhibition of parasite growth incubated for 72 hrs by resazurin-dye based assay; format: functional, organism-based; conditions: Lister 427, 72 h
[5] = Cytotoxicity against human HEK293 cells assessed as reduction in cell viability at 10 uM incubated for 24 hrs by Cell-Titer Glo luminescence assay; format: toxicity, cell-based; conditions: read-out: INH
[6] = biological target: hERG (KCNH2) (Homo sapiens, UniProt Q12809); experiment: Displacement of tracer from hERG extracted from membrane at 10 uM incubated for 2 hrs by fluorescence polarization assay; format: toxicity, cell membranes; conditions: hERG membrane preparation, probe tracer (not named)
Chain of hERG (KCNH2) (Q12809 whole entry): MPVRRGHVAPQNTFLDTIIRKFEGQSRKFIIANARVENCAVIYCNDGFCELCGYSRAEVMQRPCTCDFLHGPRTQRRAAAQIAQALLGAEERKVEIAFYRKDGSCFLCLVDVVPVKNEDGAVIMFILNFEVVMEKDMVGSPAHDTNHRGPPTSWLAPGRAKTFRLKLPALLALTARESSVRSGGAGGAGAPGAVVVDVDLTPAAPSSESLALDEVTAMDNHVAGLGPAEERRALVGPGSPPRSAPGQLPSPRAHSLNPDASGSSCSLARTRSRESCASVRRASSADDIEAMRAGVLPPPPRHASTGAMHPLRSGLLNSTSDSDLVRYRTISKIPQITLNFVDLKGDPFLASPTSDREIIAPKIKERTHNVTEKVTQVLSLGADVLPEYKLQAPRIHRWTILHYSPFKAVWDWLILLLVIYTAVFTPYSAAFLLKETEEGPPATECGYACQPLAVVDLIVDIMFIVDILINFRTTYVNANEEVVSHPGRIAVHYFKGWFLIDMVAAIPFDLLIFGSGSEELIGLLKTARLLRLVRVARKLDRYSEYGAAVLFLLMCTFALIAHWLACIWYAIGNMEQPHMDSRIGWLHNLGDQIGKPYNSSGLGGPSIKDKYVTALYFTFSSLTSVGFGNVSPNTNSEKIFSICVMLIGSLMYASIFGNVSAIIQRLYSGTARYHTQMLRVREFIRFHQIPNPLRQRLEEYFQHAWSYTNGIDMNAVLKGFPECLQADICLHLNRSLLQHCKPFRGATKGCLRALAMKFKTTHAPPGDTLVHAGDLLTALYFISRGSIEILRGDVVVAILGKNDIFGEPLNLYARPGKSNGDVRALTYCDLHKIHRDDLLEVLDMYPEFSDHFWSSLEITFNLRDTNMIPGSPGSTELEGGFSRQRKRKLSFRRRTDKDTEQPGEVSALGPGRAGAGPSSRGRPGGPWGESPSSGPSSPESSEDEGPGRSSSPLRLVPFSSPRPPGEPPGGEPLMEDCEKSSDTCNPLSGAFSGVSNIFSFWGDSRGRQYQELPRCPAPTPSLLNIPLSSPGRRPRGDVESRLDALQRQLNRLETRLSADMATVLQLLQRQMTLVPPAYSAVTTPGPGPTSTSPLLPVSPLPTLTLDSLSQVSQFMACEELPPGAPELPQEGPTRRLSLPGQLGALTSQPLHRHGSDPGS

[7] = system: Leishmania infantum; experiment: Anti-leishmanial activity against promastigote stage of Leishmania infantum MHOM/MA/67/ITMAP-263 assessed as inhibition of parasite growth at 10 uM incubated for 72 hrs by resazurin-dye based assay; format: functional
[8] = Cytotoxicity against human THP-1 cells assessed as reduction in cell viability incubated for 72 hrs by MTT assay; format: toxicity, cell-based
[9] = system: Leishmania infantum; experiment: Anti-leishmanial activity against luciferase expressing intracellular amastigote stage of Leishmania infantum MHOM/MA/67/ITMAP-263 infected in human THP-1 cells assessed as inhibition of parasite growth at 10 uM incubated for 72 hrs by Steady-Glo luciferase assay; format: functional; conditions: MHOM/MA/67/ITMAP-263, THP-1
[10] = Selectivity index, ratio of CC50 for cytotoxicity against human THP-1 cells to IC50 for anti-leishmanial activity against promastigote stage of Leishmania infantum MHOM/MA/67/ITMAP-263; format: toxicity, cell-based; conditions: read-out: Ratio CC50/IC50
[11] = system: Leishmania infantum; experiment: Anti-leishmanial activity against promastigote stage of Leishmania infantum MHOM/MA/67/ITMAP-263 assessed as inhibition of parasite growth incubated for 72 hrs by resazurin-dye based assay; format: functional, organism-based; conditions: MHOM/MA/67/ITMAP-263, 72 h
[12] = system: Leishmania infantum; experiment: Anti-leishmanial activity against luciferase expressing intracellular amastigote stage of Leishmania infantum MHOM/MA/67/ITMAP-263 infected in human THP-1 cells assessed as inhibition of parasite growth incubated for 72 hrs by Steady-Glo luciferase assay; format: functional, organism-based; conditions: MHOM/MA/67/ITMAP-263, THP-1, 72 h
[13] = Selectivity index, ratio of CC50 for cytotoxicity against human THP-1 cells to IC50 for anti-leishmanial activity against luciferase expressing intracellular amastigote stage of Leishmania infantum MHOM/MA/67/ITMAP-263 infected in human THP-1 cells; format: toxicity, cell-based; conditions: read-out: Ratio CC50/IC50

Row | SMILES | inhibition at 10 min, 10 µM [2] | IC50 [4] | selectivity ratio [1] | cytotoxicity at 24 h, 10 µM [3] | cytotoxicity at 24 h, 10 µM [5] | inhibition at 2 h, 10 µM [6] | inhibition at 10 µM [7] | CC50 at 72 h [8] | inhibition at 10 µM [9] | selectivity ratio [10] | IC50 [11] | IC50 [12] | selectivity ratio [13]
1 | COc1cc(/C=N/Nc2ncnc3c(Nc4ccc(Cl)c(C(F)(F)F)c4)ncnc23)cc(OC)c1OC | 20% | 1.76 µM | > 6 | -7% | -2% | 24% | 22% | > 10 µM | – | – | – | – | –
2 | NNc1ncnc2c(Nc3ccc(OC(F)(F)F)cc3)ncnc12 | 20% | 0.18 µM | > 55 | 17% | 17% | 30% | 18% | > 10 µM | – | – | – | – | –
3 | COc1cc(/C=N/Nc2ncnc3c(Nc4ccc(F)c(Cl)c4)ncnc23)cc(OC)c1OC | 30% | 8.72 µM | > 1 | 14% | 14% | 5% | 20% | > 10 µM | – | – | – | – | –
4 | COc1cc(/C=N/Nc2ncnc3c(Nc4ccc(OC(F)(F)F)cc4)ncnc23)ccc1O | 0% | 0.18 µM | > 54 | 38% | 19% | 64% | 50% | > 10 µM | < 0% | 1 | 8.75 µM | – | –
5 | COc1ccc(Nc2ncnc3c(NN)ncnc23)cc1 | 12% | 0.71 µM | > 71 | -14% | -7% | 7% | 99% | > 50 µM | < 0% | 69 | 0.72 µM | – | –
6 | COc1ccc(/C=N/Nc2ncnc3c(Nc4ccc(OC(F)(F)F)cc4)ncnc23)cc1O | 0% | 0.26 µM | > 39 | 38% | 10% | 61% | 60% | > 10 µM | < 0% | 4 | 2.54 µM | – | –
7 | COc1cccc(Nc2ncnc3c(N/N=C/c4ccc(OC)c(OC)c4)ncnc23)c1 | 0% | 1.32 µM | > 38 | 40% | 18% | 35% | 98% | > 50 µM | 34% | > 35 | 1.44 µM | > 20 µM | –
8 | COc1ccc(Nc2ncnc3c(N/N=C/c4cc(O)c(O)c(O)c4)ncnc23)cc1 | 0% | 0.54 µM | > 185 | 12% | 3% | 48% | 94% | > 100 µM | 41% | > 502 | 0.2 µM | > 20 µM | –
9 | COc1cc(/C=N/Nc2ncnc3c(Nc4ccc(OC(F)(F)F)cc4)ncnc23)cc(OC)c1OC | 11% | 0.39 µM | > 26 | 6% | 2% | 21% | 24% | > 10 µM | – | – | – | – | –
10 | COc1cccc(Nc2ncnc3c(NN)ncnc23)c1 | 65% | 0.11 µM | > 438 | 16% | 12% | 14% | 99% | > 50 µM | < 0% | 178 | 0.28 µM | – | –
11 | COc1cc(/C=N/Nc2ncnc3c(Nc4ccc(F)c(Cl)c4)ncnc23)cc(OC)c1O | 32% | 5.83 µM | > 17 | 5% | 11% | 38% | < 0% | > 100 µM | – | – | – | – | –
12 | COc1cccc(Nc2ncnc3c(N/N=C/c4cc(O)c(O)c(O)c4)ncnc23)c1 | 0% | 2.71 µM | > 37 | -6% | 8% | 34% | 95% | > 100 µM | 4% | > 221 | 0.45 µM | – | –
13 | CCCCCCCCCCCCCCCCOP(=O)([O-])OCC[N+](C)(C)C [MILTEFOSINE] | – | – | – | – | – | – | 97% | – | 99% | 2.5 | 11.9 µM | 0.71 µM | 42
14 | N=C(N)c1ccc(OCCCCCOc2ccc(C(=N)N)cc2)cc1 [PENTAMIDINE] | – | 0.003 µM | – | – | – | – | – | < 10 µM | – | – | – | – | –

Further lines, with some results ahead:

Row | inhibition at 10 min, 10 µM [2] | IC50 [4] | SMILES | selectivity ratio [1] | cytotoxicity at 24 h, 10 µM [3] | cytotoxicity at 24 h, 10 µM [5] | inhibition at 2 h, 10 µM [6] | inhibition at 10 µM [7] | CC50 at 72 h [8] | inhibition at 10 µM [9] | selectivity ratio [10] | IC50 [11] | IC50 [12] | selectivity ratio [13]
15 | 27% | 1.44 µM | COc1ccc(/C=N/Nc2ncnc3c(Nc4ccc(Cl)c(C(F)(F)F)c4)ncnc23)cc1O | > 7 | 3% | -3% | 7% | 12% | > 10 µM | – | – | – | – | –
16 | 20% | 5.81 µM | COc1ccc(/C=N/Nc2ncnc3c(Nc4ccc(F)c(Cl)c4)ncnc23)cc1O | > 2 | -9% | -3% | -7% | 13% | > 10 µM | – | – | – | – | –
17 | 19% | 5.63 µM | COc1cc(/C=N/Nc2ncnc3c(Nc4ccc(Cl)c(C(F)(F)F)c4)ncnc23)cc(OC)c1O | > 2 | -2% | -1% | 3% | 9% | > 10 µM | – | – | – | – | –
18 | 11% | 2.76 µM | Oc1cc(/C=N/Nc2ncnc3c(Nc4ccc(Cl)c(C(F)(F)F)c4)ncnc23)cc(O)c1O | > 4 | -4% | -2% | 49% | < 0% | > 10 µM | – | – | – | – | –
19 | 24% | 0.26 µM | COc1cc(/C=N/Nc2ncnc3c(Nc4ccc(F)c(Cl)c4)ncnc23)ccc1O | > 196 | 2% | 13% | 7% | 19% | > 50 µM | – | – | – | – | –
20 | 0% | 0.43 µM | Oc1ccc(/C=N/Nc2ncnc3c(Nc4ccc(Cl)c(C(F)(F)F)c4)ncnc23)cc1O | > 23 | 15% | 3% | 29% | 5% | > 10 µM | – | – | – | – | –
21 | 0% | 0.35 µM | Oc1ccc(/C=N/Nc2ncnc3c(Nc4ccc(OC(F)(F)F)cc4)ncnc23)cc1O | > 29 | 18% | 24% | 21% | 52% | > 10 µM | < 0% | 1 | 14.9 µM | – | –
22 | 21% | 0.16 µM | Oc1cc(/C=N/Nc2ncnc3c(Nc4ccc(OC(F)(F)F)cc4)ncnc23)cc(O)c1O | > 64 | 9% | 7% | 30% | 5% | > 10 µM | – | – | – | – | –
23 | 0% | 0.38 µM | Oc1cc(/C=N/Nc2ncnc3c(Nc4ccc(F)c(Cl)c4)ncnc23)cc(O)c1O | > 26 | 27% | 24% | 62% | 0% | > 10 µM | – | – | – | – | –
24 | 25% | 0.59 µM | Oc1ccc(/C=N/Nc2ncnc3c(Nc4ccc(F)c(Cl)c4)ncnc23)cc1O | > 85 | -6% | -6% | 7% | 13% | > 50 µM | – | – | – | – | –

Reference: ChEMBL document CHEMBL5614450, “SAR Study of 4,8-Disubstituted Pyrimido[5,4-d]pyrimidines Exhibiting Antitrypanosomal and Antileishmanial Activity” (ACS Med Chem Lett, 2024)
